The test system of one data set is RT112. Kind of data set: Cell survival assay (MTT assay), urothelial cancer cell line RT112. In kind it is cell-based, human. As for the experimental part: (§1) Three human urothelial cancer cell lines (RT112, 253J, and J82) were used to analyze the antitumor effect of rare sugars. Ten rare sugars of L-allulose, D-allulose, D-allose, L-fructose, D-mannose, L-sorbose, D-tagatose, D-galactose, D-sorbose, and L-tagatose were used, and D-glucose and D-fructose were used as monosaccharides other than the rare sugars. A minimum essential medium (MEM) containing D-glucose at 1,000 mg/l was used as the culture medium, and the antitumor effect of a rare sugar was evaluated in a prepared MEM containing a monosaccharide or a rare sugar at 10 mM, 25 mM, or 50 mM [in the drawings, indicated by (10), (25), or (50)]. An MEM containing no sugar was used for control. With the MEM, cell suspensions each at 5.0×10^4 cells/ml were prepared. Each suspension was distributed in a 96-well plate at 0.1 ml/well and then was incubated for 24 hours. The culture solution was then removed, next a culture solution containing a monosaccharide or a rare sugar at 10 mM, 25 mM, or 50 mM in the MEM was added at 0.1 ml/well, and the whole was incubated for 24 hours (#1 to #13). An MTT assay is a test method for determining survival and uses a color reaction of an insoluble formazan pigment (blue) formed by reduction of MTT as a tetrazolium salt. […] The coloration is measured with a microplate reader to determine the cell survival rate.
A general note: Formazan colour is commonly taken as a measure of viable cells.

Another data set concerns 253J. Put plainly: Cell survival assay (MTT assay), urothelial cancer cell line 253J. In kind it is cell-based, human. As for the experimental part: as §1
Data set [1] in a line: Basic safety tests (mutagenicity, biodegradability, acute oral toxicity, primary skin irritation, primary eye irritation). The following applies: tests ordered to a designated laboratory. The source says: The safety of D-allose required for use as a pharmaceutical component is probably sufficient because the rare sugar is a monosaccharide present even in a trace amount in nature. Mutagenicity test, biodegradability test, and three acute toxicity tests (acute oral toxicity test, primary skin irritation test, and primary eye irritation test) are established as the most basic safety tests.

Another data set relates to J82. Kind of data set: Cell survival assay (MTT assay), urothelial cancer cell line J82. It counts as cell-based, human. The procedure: as §1
Setting [2] is: compared with 11 other monosaccharides/rare sugars at 10-50 mM.

Consider `O=C[C@H](O)[C@H](O)[C@H](O)[C@H](O)CO` [D-allose], for which the “survival rate as compared with the control” value is recorded as “significantly reduced the survival rate” in the data set on RT112 (10 mM, 25 mM and 50 mM in MEM, 24 hours, p<0.05, FIG. 1); “significantly reduced the survival rate” in the data set with 253J (10 mM, 25 mM and 50 mM in MEM, 24 hours, p<0.05, FIG. 2); “significantly reduced the survival rate” in the data set with J82 (10 mM, 25 mM and 50 mM in MEM, 24 hours, p<0.05, FIG. 3). Moreover, the “antitumor effect relative to the other analyzed sugars” value with RT112 (setting [2]), in the data set with 253J (setting [2]) and in the data set with J82 (setting [2]) was “strongest antitumor effect among the analyzed sugars” throughout. For the same compound, the “result of basic safety tests” value in data set [1] is “sufficient safety”.

These data come from patent US20250255891A1, “PHARMACEUTICAL COMPOSITION INJECTABLE INTO URINARY TRACT ORGAN CAVITY FOR PREVENTION OR TREATMENT OF UROTHELIAL CANCER” (NATIONAL UNIVERSITY CORPORATION KAGAWA UNIVERSITY, priority 2019, published 2025).
